Experiments:
Mus musculus [1] = test: Psychomotor side-effect in mice by rotarod test by intraperitoneal administration at 60 mins; assay type: functional; conditions: ip, 1 h
Mus musculus [2] = test: Anticonvulsant activity in mice by peroral administration measured at 60 mins before maximum electroshock seizure induction; assay type: functional; conditions: po
[3] = Therapeutic index TI (ED50 rotorod/MES) of the compound; conditions: mouse; read-out: TI
[4] = molecular target: T1, Sodium channel alpha subunits; brain (Types I, II, III) (Rattus norvegicus, UniProt P04775+P04774+P08104); test: Binding of [3H]saxitoxin (STX) to rat brain sodium channel
[5] = molecular target: T1, Sodium channel alpha subunits; brain (Types I, II, III); test: Binding of [3H]batrachotoxin (BTX) to rat brain sodium channel
Mus musculus [6] = test: Anticonvulsant activity in mice by intraperitoneal administration measured at 30 mins before maximum electroshock seizure induction; assay type: functional; conditions: ip
[7] = Significant mortality was observed in mice caused by the compound; assay type: ADME; conditions: mouse, in vivo

| SMILES | ED50 (Mus musculus [1]) [mg/kg] | ED50 (Mus musculus [2]) [mg/kg] | selectivity ratio [3] | IC50 [4] [µM] | IC50 [5] [µM] | ED50 (Mus musculus [6]) [mg/kg] | LD50 [7] [mg/kg] |
| --- | --- | --- | --- | --- | --- | --- | --- |
| C[C@H](C(N)=O)N1CCC23CCCCC2[C@@H]1Cc1ccc(OCc2cccc(F)c2)cc13 (stereo partly specified) | 176 | 50.8 | 10 | > 300 | 2.6 | 18.1 |  |
| CNC(=O)[C@@H](C)N1CCC23CCCCC2[C@@H]1Cc1ccc(OCc2cccc(F)c2)cc13 (stereo partly specified) | 152 |  | 4 | > 300 | 5.3 | 41.6 |  |
| COc1ccc2c(c1)C13CCCCC1C(C2)N(C)CC3 (stereo not drawn) [RACEMETHORPHAN] |  | 12.9 |  | > 300 | 1.3 | 10.1 | 234 |
| CS(=O)(=O)O.C[C@H](NCc1ccc(OCc2cccc(F)c2)cc1)C(N)=O [SAFINAMIDE MESYLATE] | 626 | 8 | 78 | > 300 |  | 6.9 |  |
